The record followed here is ChEMBL document CHEMBL3507680, “University of Dundee, Gates Library screen for HepG2 cell viability”.

The data set in a line: Human HepG2 cell viability assay in 384 well format. To be noted: HepG2 cells, read-out: Inhibition. Details: dose 125 nL, time 70.5 hour; cytotoxicity at 70.5 h: concentration not given beside the values. It is filed as toxicity, cell-based.
With `CCc1noc(CC)c1CC(=O)N1CCN(C(=O)C2CCCC2)CC1`, the cytotoxicity at 70.5 h was -9.43%. The result for `CCc1noc(CC)c1CC(=O)N1CCN(C(C#N)C(C)C)CC1` (stereo not drawn) reads -8.63%. For `NC(=O)CCSCc1cc(Br)cc2cccnc12` the value was 10.9%; for `CCCNC(=O)C(C)Nc1ccc(COCC)cc1` (stereo not drawn), -0.943%. For `Cc1nc(CNC(=O)Nc2ccc3c(ccn3CCN(C)C)c2)no1`, the cytotoxicity at 70.5 h was -2.87%.

Take `NC(=O)NC(=O)CCSc1ccccc1Cl`: the cytotoxicity at 70.5 h is -17.5%. For the compound `CC(SCCS(C)(=O)=O)c1nc(Cc2ccccc2)no1` (stereo not drawn), the cytotoxicity at 70.5 h was -7.83%.

Turning to `CCc1noc(CC)c1CC(=O)N1CCCC(N2CCCCC2)C1` (stereo not drawn), the cytotoxicity at 70.5 h is -8.14%. The result for `CCS(=O)(=O)c1nccn1-c1cccc(F)c1` reads -9.95%. The result for `CCN(CCc1nccs1)C(=O)c1ccco1` reads -7.04%. For `CN(CCCc1ccc(C(F)(F)F)cc1)Cc1nccn1C` the value was -12%. Regarding `CCC1CN(CC(=O)NCC(C)C)CCO1` (stereo not drawn), the cytotoxicity at 70.5 h was -10.6%. The result for `CCOCCN1CCc2cncnc2C1` reads 27.9%; that for `Cc1noc(C2CCCN(CC(=O)N3CCNC(=O)C3)C2)n1` (stereo not drawn), -4.79%.

Take `CCc1noc(CCCC(=O)Nc2cc(C(F)(F)F)c[nH]c2=O)n1`: the cytotoxicity at 70.5 h amounted to 0.169%. For `CC(C)c1noc(CCC(=O)Nc2cc(C(F)(F)F)c[nH]c2=O)n1` the value was -3.33%; for `Cn1cc(C(=O)N(Cc2ccco2)Cc2cccs2)ccc1=O`, -8.8%; for `COc1ccc(CC(=O)N2CCC(c3n[nH]c(C4CC4)n3)CC2)cc1`, 2.82%.

As to `COc1ccc(C(=O)NCCCNc2ncccn2)c(OC)c1`, the cytotoxicity at 70.5 h is -7.46%. As to `NC(=O)C1=NC2=NS(=O)(=O)c3ccccc3N2N1Cc1ccc(Br)cc1`, the cytotoxicity at 70.5 h was -7.39%. The result for `Cc1ccc(CNC(=O)c2c[nH]nc2NC(=O)COCC2CC2)cc1` reads -3.76%; that for `Cc1ccc(CNC(=O)c2c[nH]nc2NC(=O)C2CCC2)cc1`, -7.26%.

Take `CCOc1ccc(NC2CCN(C)C2=O)cn1` (stereo not drawn): the cytotoxicity at 70.5 h is -3.61%. With `CCC(C)Oc1cc(C(=O)Nc2nc(C)ns2)ccn1` (stereo not drawn), the cytotoxicity at 70.5 h is -0.392%. The result for `CCCc1nnc(NCc2ccc(OC)c(C#N)c2)o1` reads 20.2%.

Take `CC(C)OCc1cccc(NC(=O)N(C)Cc2ncnn2C)c1`: the cytotoxicity at 70.5 h was -9.1%.

With `CCSCc1cccc(NC(=O)N(C)Cc2ncnn2C)c1`, the cytotoxicity at 70.5 h is -3.07%. For `CC(C)Nc1cccc(CNC(=O)N2CCC[C@@H]2CO)c1` the value was -2.37%.

As to `CCN(C(=O)NCc1ncc(C)c(OC)c1C)C(C)c1cccnc1` (stereo not drawn), the cytotoxicity at 70.5 h was -9.02%. The result for `OC(COCc1cccs1)CSc1nnc2ccccn12` (stereo not drawn) reads 22.9%; that for `CC(=O)N(CCc1ccccc1)CC(=O)NC1(C#N)CC1`, -0.397%. Take `Cc1cc(S(=O)(=O)Nc2onc(C)c2C)c(C)s1`: the cytotoxicity at 70.5 h was -3.24%.

On to `CCN1CCN(C(=O)NCc2cccc(-c3cnn(C)c3)c2)CC1`, for which the cytotoxicity at 70.5 h was -2.59%. For `Cc1nc(C2CCCN2C(=O)c2ccc(=O)n(C)n2)no1` (stereo not drawn) the value was -5.27%; for `c1cncc(CN2CCC(NCCc3ccc4c(c3)OCO4)CC2)c1`, 0.189%. As to `Cc1ccsc1CN(C)C(=O)C1CCCN(C(N)=O)C1` (stereo not drawn), the cytotoxicity at 70.5 h was -8.56%. Regarding `Cc1cccc(C(C)(C)CNc2cn[nH]c(=O)c2Cl)c1`, the cytotoxicity at 70.5 h stood at 18.4%.

On to `CC(C)(CNc1cn[nH]c(=O)c1Cl)c1ccc2c(c1)OCO2`, for which the cytotoxicity at 70.5 h was -13.4%.

As for `CC(C)c1ccc(O)c(C(=O)NC2CCN(c3ncccn3)CC2)c1`, the cytotoxicity at 70.5 h was -19.5%. Turning to `CN(C(=O)CN1CCC(c2cc3ccccc3[nH]2)CC1)C1CC1`, the cytotoxicity at 70.5 h was -8.97%. As to `CN(C)C(=O)CN1CCN(C(=O)C2CSc3ccccc3O2)CC1` (stereo not drawn), the cytotoxicity at 70.5 h is -16.2%. Take `CCOC(C(=O)N1CCn2c(C)nnc2C1)c1ccccc1` (stereo not drawn): the cytotoxicity at 70.5 h was -11.7%. The result for `Cc1nnc2n1CCN(C(=O)C(OC1CCCC1)c1ccccc1)C2` (stereo not drawn) reads -1.74%; that for `CC(C)(O)CN1CCN(C(=O)C2CSc3ccccc3O2)CC1` (stereo not drawn), -14.7%.

With `Cc1noc(C2CCN(C(C)c3nc(C(C)(C)C)no3)CC2)n1` (stereo not drawn), the cytotoxicity at 70.5 h is -14.9%. For `CC(C)NC(=O)C1CCN(Cn2ccc(-c3ccc(F)cc3)n2)CC1` the value was 4%; for `N#CCCN(c1ccc(F)cc1)S(=O)(=O)CC1CCCCO1` (stereo not drawn), -1.6%; for `Cc1cccc(-c2c[nH]c(C3CCCN3C(=O)Cn3cc(C)cn3)n2)c1` (stereo not drawn), 6.62%. The result for `N#CCCN(c1ccccc1)S(=O)(=O)CC1CCCCO1` (stereo not drawn) reads -9.85%. For `CCC(NC(=O)c1ccc2[nH]ccc2c1)C(=O)N1CCOCC1` (stereo not drawn) the value was 6.49%; for `O=C(NC1CCN(c2ncccn2)CC1)c1cc2c(cc1O)CCCC2`, 6.37%; for `CC1CN(C(=O)c2cc[nH]c(=O)c2)c2ccccc21` (stereo not drawn), -12.3%. For the compound `CCCNC(=O)CCc1ccnc2ccccc12`, the cytotoxicity at 70.5 h is -14%. For `CCOC(C)c1nc(Cn2cc(C)cn2)cs1` (stereo not drawn) the value was 9.54%; for `CCOC(C)c1nc(Cn2cccn2)cs1` (stereo not drawn), -8.39%; for `CCOC(C)c1nc(Cn2cc(-n3cccc3)cn2)cs1` (stereo not drawn), -10.1%. For `CC(CN(C)C(=O)c1cn(C)nc1-c1ccc(F)cc1F)C(=O)O` (stereo not drawn) the value was -1.61%; for `CC(=O)N1CCC(NS(=O)(=O)c2cccnc2)CC1`, 8%. For `Cc1ccc(OCC(O)CN(C)CC(=O)Nc2cc(C)on2)c(C)c1` (stereo not drawn), the cytotoxicity at 70.5 h was 10.1%. For `COCC(C)N(C)C(=O)NC1CCN(c2ncccn2)CC1` (stereo not drawn) the value was 7.61%. For `Cc1ccc2cc(C(=O)NCCN3CCS(=O)(=O)CC3)c(C)nc2c1` the value was -15.9%; for `CN(C)C(=O)CCCS(=O)(=O)Cc1cc(Cl)c2c(c1)OCCO2`, -4.96%. The result for `CCOCCNC(=O)C(CCSC)NC(=O)c1ccc2ccccc2n1` (stereo not drawn) reads 5.06%; that for `CSCCC(NC(=O)c1ccc2ccccc2n1)C(=O)NC1CC1` (stereo not drawn), -8.01%. In the case of `COc1ccnc(NC2CCN(CC(=O)N3CCCC3)CC2)n1`, the cytotoxicity at 70.5 h was -4.69%. Consider `Cc1ccc(OCC(O)CN(C)CC(=O)NC(C)C)c(C)c1` (stereo not drawn), for which the cytotoxicity at 70.5 h stood at 3.84%. For `O=C(CN1CCC(Nc2ncccn2)CC1)Nc1ccccc1` the value was -5.9%; for `Cn1cc(C(=O)OCC(N)=O)c(-c2ccc(F)cc2F)n1`, -7.24%. For `O=C1CCN(C(=O)CCc2cc(Br)cs2)CCN1` the value was -10.5%. For `CN(C)C1CCN(C(=O)CCc2cc(Br)cs2)CC1` the value was -0.796%; for `Cc1nccn1-c1ccc(CNC(=O)c2ccc[nH]2)cn1`, -6.51%; for `CN(C)c1nccc(N(C)C2CCOCC2)n1`, -2.99%. As to `CS(=O)(=O)CCCNC1(c2cccc(Cl)c2)CCCC1`, the cytotoxicity at 70.5 h is -5.23%. The result for `Cc1nnc(SCCC(=O)N(C)Cc2ccc(F)cc2F)[nH]1` reads 4.62%.

On to `Cc1nnc(SCCC(=O)N(C)Cc2ccc(F)cc2Cl)[nH]1`, for which the cytotoxicity at 70.5 h is -4.47%. For `CCCc1nc(C(C)(C)NC(=O)c2ccnn2C)no1` the value was -2.57%. The result for `CCN(Cc1csc(CS(C)(=O)=O)n1)c1cccc(CO)c1` reads -6.41%; that for `CS(=O)(=O)CCCNC1(c2cccc(F)c2)CC1`, -7.6%.

Regarding `CC(c1ccccc1)N(C)C(=O)CNCCn1cccn1` (stereo not drawn), the cytotoxicity at 70.5 h was -10.3%. For `CN(C)c1cc(CNC(=O)NCC2(C)CCCS2)ccn1` (stereo not drawn) the value was 10.1%. `O=C(Nc1ccnn1Cc1ccc(Cl)cc1)C1CCS(=O)(=O)C1` (stereo not drawn): the cytotoxicity at 70.5 h was -8.12%. Consider `CS(=O)(=O)c1ccc(NCCC2CCCO2)c(S(C)(=O)=O)c1` (stereo not drawn), for which the cytotoxicity at 70.5 h is -16.8%.

Turning to `CSCC(=O)NS(=O)(=O)c1ccc(C#N)c(C(F)(F)F)c1`, the cytotoxicity at 70.5 h is -8.4%. With `CS(=O)(=O)c1cc(S(N)(=O)=O)ccc1NCC1CCCO1` (stereo not drawn), the cytotoxicity at 70.5 h was -3.22%.

Regarding `COc1ccccc1C(C)NC(=O)NCCC(=O)NC1CCCCC1` (stereo not drawn), the cytotoxicity at 70.5 h is -16.1%. For `N#Cc1c(F)cccc1N1CCCC(C(=O)Nc2nccs2)C1` (stereo not drawn) the value was -19.5%; for `CC(=O)N1CCC(NC(=O)c2ccc3c(c2O)OC(C)(C)C3)CC1`, -12.2%. The result for `CCCNC(=O)NC(=O)CNc1c(F)cccc1N1CCCC1` reads -17.8%; that for `CC(C)COC1CCN(S(=O)(=O)Cc2cccc(F)c2)CC1`, -14.2%; that for `COc1ccnc(N2CCN(Cc3nc(-c4ccoc4)no3)CC2)c1`, -0.129%. As for `N#CC1(NC(=O)c2ccc(-c3nc(C4CC4)n[nH]3)cc2)CCSC1` (stereo not drawn), the cytotoxicity at 70.5 h is -18.6%. Take `O=C(Nc1cccnn1)NC(CCCO)c1ccccc1` (stereo not drawn): the cytotoxicity at 70.5 h was -14.5%. Regarding `N#CC1(NC(=O)c2ccc(-c3nc(C4CC4)n[nH]3)cc2)CCC1`, the cytotoxicity at 70.5 h is -16.7%. As for `N#Cc1cc(F)ccc1Cn1cnc(C2CCC2)cc1=O`, the cytotoxicity at 70.5 h amounted to 1.8%. Turning to `COCC1CCCN(C(=O)c2ccc(NC(=O)CC(C)C)c(C)c2)C1` (stereo not drawn), the cytotoxicity at 70.5 h is -17.4%.

On to `Cc1ccc(CN(C)C(=O)c2cnsn2)cc1`, for which the cytotoxicity at 70.5 h is 4.93%. `COCCN1CCN(Cc2nc(-c3ccoc3)no2)CC1`: the cytotoxicity at 70.5 h was -4.32%.

Turning to `Cc1cc(NC(=O)C(C)N2CCN(c3ccc(C#N)cc3F)CC2)no1` (stereo not drawn), the cytotoxicity at 70.5 h was -11.7%. `CC(C)(C)c1nc(NS(=O)(=O)c2ccc(F)cc2)no1`: the cytotoxicity at 70.5 h was -17.2%. The result for `CCOCC(=O)NCCc1ccc(I)s1` reads 18.6%; that for `Cc1cc(C(=O)N2CCCC2)ccc1NCCOCC(F)(F)F`, 9.16%.

In the case of `CC(CO)(NC(=O)Nc1nnc(C(F)F)s1)C1CC1` (stereo not drawn), the cytotoxicity at 70.5 h was determined as 4%. The result for `Cc1cccc2c(CCNS(=O)(=O)C3CCOC3)c[nH]c12` (stereo not drawn) reads 12.8%.
